“And” between values parts separate entries of the source, which are not always exact repeats. Equal values may be shown once.
How the values were obtained:
Sortilin = target: T1, Sortilin (Homo sapiens, UniProt Q99523); assay: Creoptix (GCI) binding kinetics, human Sortilin; conditions: Species Human, screened at 1 µM, 25 degrees Celsius
T1 construct: purchased Bio-Techne Ltd 3154-ST-050
T1 sequence (Q99523 78-755 limits assumed): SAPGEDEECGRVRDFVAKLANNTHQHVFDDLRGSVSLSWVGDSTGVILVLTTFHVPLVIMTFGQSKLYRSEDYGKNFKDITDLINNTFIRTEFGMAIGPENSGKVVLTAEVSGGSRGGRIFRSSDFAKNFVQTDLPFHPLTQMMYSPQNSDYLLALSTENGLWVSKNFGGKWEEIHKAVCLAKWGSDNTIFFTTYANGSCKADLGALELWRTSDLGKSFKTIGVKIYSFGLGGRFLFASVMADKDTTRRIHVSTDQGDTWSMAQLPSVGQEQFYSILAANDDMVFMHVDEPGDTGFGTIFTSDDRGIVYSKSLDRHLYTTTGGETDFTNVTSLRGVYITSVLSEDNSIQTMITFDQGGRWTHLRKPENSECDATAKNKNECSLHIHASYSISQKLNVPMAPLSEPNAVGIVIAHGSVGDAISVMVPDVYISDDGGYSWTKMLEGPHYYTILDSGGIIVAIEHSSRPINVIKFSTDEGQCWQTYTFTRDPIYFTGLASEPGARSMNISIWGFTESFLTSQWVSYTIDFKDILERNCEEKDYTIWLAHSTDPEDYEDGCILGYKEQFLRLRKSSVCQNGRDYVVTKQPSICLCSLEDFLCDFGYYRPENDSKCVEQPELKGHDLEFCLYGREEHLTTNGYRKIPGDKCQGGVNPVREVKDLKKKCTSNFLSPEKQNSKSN
Experimental: Creoptix (GCI) method - using SEQ ID NO.4 (Murine sortillin)
A protein, bound to a surface, is bathed in a solution containing potential ligands giving rise to binding kinetics to generate Kon and Koff rates, as well as a Kd.
All buffers described were filtered using a 0.2µm filter (Product number: 10300461, Nalgene) and degassed for 15 minutes prior to use.
A flow cell temperature of 25 degrees Celsius was used throughout the experiment.
A 4PCH chip was conditioned across all flow cells using 0.2 X concentration running buffer (running buffer composition: 1XHBS-N, pH 7.4, 3.4 mM EDTA, 1% DMSO) using pre-set conditioning wizard (WAVE control software) injecting: 0.1 M borate, 1 M NaCl (pH 9) followed by three start-up injections of 0.2 X running buffer.
A buffer exchange was performed and 1x running buffer (1XHBS-N, pH 7.4, 3.4 mM EDTA, 1% DMSO) used during the immobilisation procedure: An initial injection of EDC/NHS (mixed in 1:1 ratio) was performed across all 4-flow cells to activate the surface for amine coupling of ligands.
Recombinant Sortilin aliquots were thawed quickly by hand and centrifuged at 13,300 rpm for 10 minutes. A 10 µg/ml protein solution was then made in pH 5.0 acetate and injected once for 20 minutes over flow-cells 2, 3 and 4 for human, human (flow cells 2 & 3), and mouse Sortilin respectively followed by a 60 second dissociation period.
A final 7-minute passivation injection of 50 mM tris was used across all flow cells.
A flow rate of 10 µl/min was used for all conditioning and immobilisation cycles.
Compounds were screened at 1 µM using the in-built 'intermediate binders' settings: 100 ul/min, 45 s baseline, 25 s association, 300 s dissociation, with blanks every 5th sample and a DMSO correction (1.5 % DMSO at the start and end of the experiment as well as every 20 cycles. An acquisition rate of 10 Hz was used throughout the experiment.
Compounds were screened at a final assay concentration of 1 µM and a final DMSO concentration was 1 %. To achieve this, compounds were diluted in DMSO from 10 mM stocks to 100 µM (100 x final assay concentration) then diluted 1:100 in running buffer which contained no DMSO to establish a final assay concentration of compound of 1 µM and a final DMSO concentration of 1 % [DMSO].
Compounds and DMSO were mixed by plate shaking at 1000 rpm for 60 seconds using a Bioshake instrument.
A flow rate of 100 µl/min was used throughout the experiment.
Data was evaluated using the RAPID kinetic analysis tool in the GCI WAVE_control software with data fitted using a standard 1:1 kinetic BioModel.

h-Sortilin = target: T2, h-Sortilin (Homo sapiens, UniProt Q99523); assay: Neurotensin scintillation proximity assay (displacement of [3H]-neurotensin binding); conditions: 150 nM 6his-Sortilin, 5 nM [3H]-Neurotensin; average of at least 2 determinations; read-out: IC50 [3H]Neurotensin SPA
T2 sequence (Q99523 78-831): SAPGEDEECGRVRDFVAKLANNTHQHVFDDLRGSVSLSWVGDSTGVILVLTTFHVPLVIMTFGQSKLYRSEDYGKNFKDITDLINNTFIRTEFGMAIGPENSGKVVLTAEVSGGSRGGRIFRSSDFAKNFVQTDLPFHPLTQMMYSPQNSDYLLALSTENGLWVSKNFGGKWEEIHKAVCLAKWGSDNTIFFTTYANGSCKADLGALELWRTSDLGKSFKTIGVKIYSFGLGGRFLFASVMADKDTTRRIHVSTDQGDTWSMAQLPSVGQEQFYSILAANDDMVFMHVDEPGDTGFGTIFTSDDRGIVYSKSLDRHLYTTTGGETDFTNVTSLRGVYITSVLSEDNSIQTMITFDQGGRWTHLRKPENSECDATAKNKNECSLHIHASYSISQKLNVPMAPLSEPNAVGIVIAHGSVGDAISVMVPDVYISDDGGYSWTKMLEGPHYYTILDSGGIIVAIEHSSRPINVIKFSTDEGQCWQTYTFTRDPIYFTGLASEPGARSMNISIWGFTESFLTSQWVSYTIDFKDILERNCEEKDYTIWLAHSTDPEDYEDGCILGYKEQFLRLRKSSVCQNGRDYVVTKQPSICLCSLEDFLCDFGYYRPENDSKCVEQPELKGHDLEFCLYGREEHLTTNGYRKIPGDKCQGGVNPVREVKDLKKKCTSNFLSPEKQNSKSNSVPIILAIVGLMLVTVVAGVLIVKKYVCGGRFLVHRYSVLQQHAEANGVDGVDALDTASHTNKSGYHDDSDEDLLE
Experimental: The exemplified compounds of the invention were tested in a Neurotensin (NTS) scintillation proximity assay (SPA). NTS, which is a 13 amino acid neuropeptide, is a sortilin ligand. The IC50 is a measure of the amount of the compound required to inhibit the binding of NTS to sortilin by 50%. The skilled person will recognise that the lower the IC50 value, the less of the compound needed to achieve the desired effect, and as a result, the chances of undesirable off-target effects are reduced.
Compound affinity was determined by measuring the displacement of [3H]-neurotensin binding to h-Sortilin in SPA format. Total volume of 40 µl in 50 mM HEPES pH 7.4 assay buffer containing 100 mM NaCl, 2.0 mM CaCl2, 0.1% BSA and 0.1% Tween-20. Compound pre-incubation for 30 minutes at room temperature with 150 nM of 6his-Sortilin before 5 nM [3H]-Neurotensin and Ni chelate imaging beads (Perkin Elmer) were added, after 6 hours the plate was read on a ViewLux with 360 s exposure time. Dose-response evaluation of compounds was performed with 8 concentrations of drugs (covering 3 decades). IC50 values were calculated by nonlinear regression using the sigmoid concentration-response (variable slope) using CDD Vault software. All values reported are average of at least 2 determinations.

| Kd (Sortilin; Form of Compound Free acid) | IC50 (h-Sortilin) [nM] | Compound | Kd (Sortilin; Form of Compound Mesylate salt) [nM] | Kd (Sortilin; Form of Compound HCl salt) [nM] |
| --- | --- | --- | --- | --- |
| 191 nM | 500 | CC(C)(C)CC[C@H](NCc1cnc2c(c1)CCC2)C(=O)O [Example 8, (2S)-2-[({5H,6H,7H-cyclopenta[b]pyridin-3-yl}methyl)amino]-5,5-dimethylhexanoic acid] |  |  |
| 504 nM | 220 | CC(C)(C)CC[C@H](N[C@@H](c1ccc2c(c1)CCC2)C(F)(F)F)C(=O)O [Example 49] |  |  |
|  | 340 | CC(C)(C)CC[C@H](NCc1ccc(Oc2ccccc2)nc1)C(=O)O [Example 38, (2S)-5,5-dimethyl-2-{[(6-phenoxypyridin-3-yl)methyl]amino}hexanoic acid] | 49.1 |  |
| 317 nM | 220 | CN1C(=O)CCc2ccc(CN[C@@H](CCC(C)(C)C)C(=O)O)cc21 [Example 28, (2S)-5,5-dimethyl-2-{[(1-methyl-2-oxo-1,2,3,4-tetrahydroquinolin-7-yl)methyl]amino}hexanoic acid] |  |  |
| 264 nM | 140 | CC(C)(C)CC[C@H](NCc1cnc2c(c1)CCCC2)C(=O)O [Example 7, (S)-5,5-dimethyl-2-(((5,6,7,8-tetrahydroquinolin-3-yl)methyl)amino)hexanoic acid] |  |  |
| 105 nM | 380 | C[C@@H](N[C@@H](CCC(C)(C)C)C(=O)O)c1ccc2c(c1)OCO2 [Example 54] |  |  |
| 350 nM | 470 | Cn1c(=O)oc2cc(CN[C@@H](CCC(C)(C)C)C(=O)O)ccc21 [Example 22, (2S)-5,5-dimethyl-2-{[(3-methyl-2-oxo-2,3-dihydro-1,3-benzoxazol-6-yl)methyl]amino}hexanoic acid] |  |  |
| 107 nM | 270 | CC(C)(C)CC[C@H](NCc1ccc2c(c1)CCOC2)C(=O)O [Example 1, (S)-2-((isochroman-6-ylmethyl)amino)-5,5-dimethylhexanoic acid] |  |  |
| 46.2 nM |  | C[C@@H](N[C@@H](CCC(C)(C)C)C(=O)O)c1ccc2c(c1)N(C)CCC2 [Example 48] |  |  |
| 163 nM | 860 | CC(C)(C)CC[C@H](NCc1ccc2c(c1)OCO2)C(=O)O [Example 68] |  |  |
| 563 nM and 158 nM | 950 | CN1C(=O)COc2cc(CN[C@@H](CCC(C)(C)C)C(=O)O)ccc21 [Example 25, (2S)-5,5-dimethyl-2-{[(4-methyl-3-oxo-3,4-dihydro-2H-1,4-benzoxazin-7-yl)methyl]amino}hexanoic acid] |  |  |
| 43.9 nM | 120 | CC(C)(C)CC[C@H](N[C@@H](c1ccc2c(c1)CCCC2)C(F)F)C(=O)O [Example 45] |  |  |
| 164 nM | 260 | CN1C(=O)COc2ccc(CN[C@@H](CCC(C)(C)C)C(=O)O)cc21 [Example 21, (2S)-5,5-dimethyl-2-{[(4-methyl-3-oxo-3,4-dihydro-2H-1,4-benzoxazin-6-yl)methyl]amino}hexanoic acid] |  |  |
| 696 nM | 310 | CC(C)(C)CC[C@H](N[C@H](c1ccc2c(c1)OCCC2)C(F)F)C(=O)O [Example 56] |  |  |
| 36.6 nM | 120 | C[C@@H](N[C@@H](CCC(C)(C)C)C(=O)O)c1ccc2c(c1)CCCC2 [Example 11, (S)-5,5-dimethyl-2-(((R)-1-(5,6,7,8-tetrahydronaphthalen-2-yl)ethyl)amino)hexanoic acid] | 40.7 |  |
| 58.3 nM | 230 | CC(C)(C)CC[C@H](NCc1ccnc(Oc2ccccc2)c1)C(=O)O [Example 76] |  |  |
| 181 nM | 280 | C[C@@H](N[C@@H](CCC(C)(C)C)C(=O)O)c1ccc2c(c1)OCCO2 [Example 51] |  |  |
| 28 nM | 130 | CC(C)(C)CC[C@H](N[C@@H](c1cnc2c(c1)CCCC2)C(F)(F)F)C(=O)O [Example 33, (2S)-5,5-dimethyl-2-{[(1S)-2,2,2-trifluoro-1-(5,6,7,8-tetrahydroquinolin-3-yl)ethyl]amino}hexanoic acid] |  |  |
| 75.3 nM | 160 | CC(C)(C)CC[C@H](N[C@@H](c1ccc2c(c1)CCCC2)C(F)(F)F)C(=O)O [Example 47] |  |  |
| 193 nM | 590 | CC(C)(C)CC[C@H](N[C@H](c1ccc2c(c1)CCCC2)C(F)F)C(=O)O [Example 71] |  |  |
| 613 nM | 1080 | CC(C)(C)CC[C@H](NCc1cccc2c1CCCO2)C(=O)O [Example 72] |  |  |
| 117 nM | 210 | CC(C)(C)CC[C@H](NCc1ccc2c(c1)CCC2)C(=O)O [Example 6, (2S)-2-{[(2,3-dihydro-1H-inden-5-yl)methyl]amino}-5,5-dimethylhexanoic acid] |  |  |

| Compound | Kd (Sortilin; Form of Compound Free acid) | IC50 (h-Sortilin) [nM] | Kd (Sortilin; Form of Compound Mesylate salt) [nM] | Kd (Sortilin; Form of Compound HCl salt) [nM] |
| --- | --- | --- | --- | --- |
| (2S)-5,5-dimethyl-2-{[(5,6,7,8-tetrahydronaphthalen-2-yl)methyl]amino}hexanoic acid [Example 4] | 40.9 nM | 120 | 42.5 | 51.7 |
| C[C@@H](N[C@@H](CCC(C)(C)C)C(=O)O)c1ccc2c(c1)CCC2 [Example 13] |  | 210 | 57.5 |  |
| C[C@@H](N[C@@H](CCC(C)(C)C)C(=O)O)c1ccc(Oc2ccccc2)nc1 [Example 43] | 68.3 nM | 410 |  |  |
| C[C@H](N[C@@H](CCC(C)(C)C)C(=O)O)c1ccc(Oc2ccccc2)nc1 [Example 44] | 127 nM | 740 |  |  |
